This note sets out measurements from US6831199B1, “Pyrimidine compounds and derivatives thereof” (G. D. Searle & Co., priority 1995, dated 2004).

Structures can show the parent of a compound that is named as a salt.

As usually defined, the IC50 is the concentration that inhibits the measured activity by half.

In one test the test system is M21 human melanoma cells. Description: M21 melanoma cell adhesion assay (αvβ3-dependent adhesion to human fibrinogen-coated plates). In kind it is cell-based. The conditions noted are these: Homo sapiens, M21; read-out: M21 Melanoma Cells IC50. The procedure:
M21 MELANOMA CELL ADHESION ASSASY
This assay involves an αvβ3-dependent adhesion of M21 human melanoma cells to human fibrinogen-coated plastic tissue culture dishes.
Fibrinogen was purified from human plasma. Fibronectin and plasminogen were eliminated from the preparation by passing the sample over gelatin-sepharose 4B and lysine-sepharose 4B resins, respectively. The fibrinogen is diluted to 10 μg/mL in coating buffer ([…] Tris-HCl, 150 mM NaCl, pH 7.4). 100 μL of diluted fibrinogen is added to each well of a 96-well Immulon 2 microtiter plate (Dynatech; Chantilly, Va.) and allowed to coat overnight at 4° C. Plates are blocked with 1% BSA (Miles/Pentex; Kankakee, Ill.) in adhesion buffer (Hank's balanced salt solution without Ca^++ or Mg^++ [HBSS−−], 50 mM Hepes, 1 mg/mL BSA, pH 7.4) for 1 hour at 37° C.
M21 human melanoma cells were provided by Dr. J. Smith, La Jolla Cancer Research Institute. M21 cells are harvested from tissue culture flasks by washing with HBSS−− and adding cell dissociation solution (Sigma) and incubating for 5 minutes at 37° C. Harvested cells are washed 3 times with adhesion assay buffer containing 200 μM Mn^++. Cells are counted and suspended to a density of 2×10^6/mL in adhesion assay buffer containing 200 μM Mn^++. M21 cells are pre-incubated with antagonists of αvβ3 for 30 minutes at room temperature. Following the pre-incubation, the solutions containing a mixture of cells and antagonists are added to each well of the microtiter plate and allowed to bind for 30 minutes at 37° C.
Following adhesion, plates are gently washed 3 times with 200 μL of wash buffer (50 mM Tris-HCl, 150 mM NaCl, pH 7.4) using large bore pipet tips. Plates are briefly blotted dry and 100 μL of cell lysis buffer (50 mM sodium acetate, pH 5.0, 0.5% Triton X-100, 0.3 mg/mL p-nitrophenyl phosphate [Sigma] is added to each well. Plates are incubated for 60 minutes at 37° C. and 50 μL of 1N NaOH is added to stop the reaction. The absorbance of the wells at […] is read using an automatic plate reader.
`NC(=O)Nc1cccc(C(=O)NCC(=O)NC(CC(=O)O)c2cccnc2)c1` (stereo not drawn) [Example 46, β-[[2-[[[3-(aminocarbonylamino)phenyl]carbonyl]amino]acetyl]amino]pyridine-3-propanoic acid, hydrochloride salt]: the IC50 turned out to be 0.147 µM.

In the case of `Cc1ccc(S(=O)(=O)NCC(CC(=O)O)NC(=O)CNC(=O)c2cccc(NC(=N)N)c2)cc1` (stereo not drawn) [Example 65, 3-[[2-[[[3-[(aminoiminomethyl)amino]phenyl]carbonyl]amino]acetyl]amino]-4-[[(4-methylphenyl)sulfonyl]amino]butanoic acid, trifluoroacetate salt], the IC50 amounted to 0.0138 µM.

As to `N=C(N)Nc1cccc(C(=O)NCC(=O)N[C@@H](CC(=O)O)CS(=O)(=O)c2ccccc2C(=O)O)c1` [Example 71, 2-[[2S-[[2-[[[3-[(aminoiminomethyl)amino]phenyl]carbonyl]amino]acetyl]amino]-2-(carboxymethyl)ethyl]sulfonyl]benzoic acid, TFA salt], the IC50 worked out at 1.04 µM.

`N=C(N)Nc1cccc(C(=O)NCC(=O)NC(CC(=O)O)c2cnc3ccccc3c2)c1` (stereo not drawn) [Example 99, β-[[2-[[[3-[(aminoiminomethyl)amino]phenyl]carbonyl]amino]acetyl]amino]quinoline-3-propanoic acid, bis(trifluoroacetate)salt]: the IC50 amounted to 0.00049 µM.

For `NC(=S)Nc1cccc(C(=O)NCC(=O)NC(CC(=O)O)c2cccnc2)c1` (stereo not drawn) [Example 114, β-[[2-[[[3-[(aminothioxomethyl)amino]phenyl]carbonyl]amino]acetyl]amino]pyridine-3-propanoic acid, trifluoroacetate salt], the IC50 was 0.2 µM.

The test is the same for the next values; noted with them: hydrochloride salt; read-out: M21 Melanoma Cells IC50.
Consider `C#C[C@H](CC(=O)O)NC(=O)CNC(=O)c1cccc(NC(=N)N)c1` [Example 45, 3S-[[2-[[[3-[(aminoiminomethyl)amino]phenyl]carbonyl]amino]acetyl]amino]-4-pentynoic acid, hydrochloride salt], for which the IC50 is 0.00254 µM.
